Data published in US20070142395A1, “Treatment of sexual dysfunction with 1-[3-[4-(3-chlorophenyl)-1-piperazinyl]propyl]-5-methoxy-3,4-dihydro-2(1H)-quinolone or salt thereof” (Vela Pharmaceuticals, Inc., priority 2005, published 2007).

System: depressed patients
Test: Comparison of change in CSFQ score (difference from placebo) with bupropion XL and escitalopram, FIG. 1
Format: in vivo, Humans
Settings: overall and virtually every CSFQ subscale, bupropion XL data from Clayton et al.
Protocol: FIG. 1 depicts the difference in the Changes in Sexual Function Questionaire (CSFQ) scores (difference from placebo) from baseline to week 8 for OPC-14523, buproprion XL and escitalopram. The data for bupropion XL and escitalopram were obtained from Clayton et al., 45th Annual NCDEU Meeting, Session 1-21, Boca Raton, Fla., June 6-9, 2005. For the Clayton et al. data, N=273 (placebo), 276 (bupropion XL, 300-400 mg) and 281 (escitalopram, 10-20 mg).
There is evidence that bupropion reduces the sexual dysfunction in depressed patients, and may be useful as a treatment for sexual dysfunction. Therefore, the data of OPC-14523 effect on sexual dysfunction discussed above were compared to data on the effects of bupropion XL and escitalopram on sexual function reported by Clayton et al. (45th Annual NCDEU Meeting, Boca Raton, Fla. June 6-9, 2005).
The comparison was based on the change in CSFQ score from baseline to week 8. The changes were assessed by subtracting the placebo score from the treated score at baseline and at week 8, then taking the difference of these two numbers.

## COc1cccc2c1CCC(=O)N2CCCN1CCN(c2cccc(Cl)c2)CC1 [OPC-14523, 1-[3-[4-(3-chlorophenyl)-1-piperazinyl]propyl]-5-methoxy-3,4-dihydro-2(1H)-quinolone]
  change in CSFQ score from baseline to week 8 (difference from placebo), compared to bupropion XL: larger improvement
